Patent US9006415B2, “Targeted delivery of nucleic acids” (Massachusetts Institute of Technology, priority 2010, dated 2015)
One block for each molecule: values may come before it.

Columns and labels:
[1] = test system: HeLa cells; test: Inhibition of endocytosis (uptake and GFP knockdown with small molecule inhibitors); type: cell-based, human; conditions: HeLa cells pre-incubated with inhibitor 1 h
Description: HeLa cells grown in 96-well plates at ˜70% confluence were incubated with small molecule inhibitors for 1 h at 37° C., followed by incubation with tetramethylrhodamine-labeled TP-LyP1 (3 μM) or TPNs containing both labeled peptide (3 μM) and GFP siRNA (100 nM) for an additional hour at 37° C. The cells were washed three times with cold PBS and were subsequently either imaged with a CCD camera mounted on a Nikon TE200 inverted epifluorescence microscope (for peptide-only), or trypsinized for flow cytometry analysis by the BD-LSR II system to assess GFP expression (for incubations with nanocomplexes).
To identify the mechanism by which tandem peptides enter cells, these experiments were repeated in the presence of a variety of endocytosis inhibitors [Veldhoen, S., Laufer, S. D., Trampe, A. & Restle, T. Cellular delivery of small interfering RNA by a non-covalently attached cell-penetrating peptide: quantitative analysis of uptake and biological effect. Nucleic Acids Res 34, 6561-6573, (2006)]. […] Thus, tandem peptides are taken up by cells mainly via macropinocytosis and lipid-raft.

[2] = biological target: T1, p32 receptor (Homo sapiens, UniProt Q07021); test: Competition of GFP silencing with free LyP-1 peptide; type: cell-based; conditions: nanocomplexes on HeLa cells
T1 construct: incubated over Hela cells, which express p32 on the cell surface; endogenous in cells; host or cells: HeLa (stably expressing dGFP)
T1 sequence (Q07021 74-282): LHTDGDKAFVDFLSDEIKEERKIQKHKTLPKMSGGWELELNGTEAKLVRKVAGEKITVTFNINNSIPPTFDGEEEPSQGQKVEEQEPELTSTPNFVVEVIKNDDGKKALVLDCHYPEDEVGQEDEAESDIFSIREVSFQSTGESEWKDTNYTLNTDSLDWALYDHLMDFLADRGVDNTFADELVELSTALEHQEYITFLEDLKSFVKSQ
Description: For the initial screen, HeLa cells stably expressing destabilized GFP were cultured in 96-well plates to ˜70-80% confluence. siRNA (0-100 nM) was incubated with 20-fold molar excess of tetramethylrhodamine-labelled tandem peptides in PBS for 10-15 min at room temperature, then incubated over cells in DMEM for 4 h at 37° C., after which the medium was replaced. The complexes were then added to HeLa cell cultures and incubated for 4 h at 37° C., after which the medium was replaced with 100 μL of fresh medium with 10% serum. […] For competition experiments with free LyP-1 peptide, cells were pre-incubated with unlabeled LyP-1 peptide or ARAL control peptide at specified concentrations for 1 h at 37° C. before treatment with peptide/siRNA complexes.

[3] = test system: tumor parenchyma; test: Tumor penetration with iRGD in place of Lyp-1; type: in vivo; conditions: data not shown

Molecule: OCC1OC(O)CC(O)C1O (stereo not drawn) [Deoxyglucose]
GFP knockdown in presence of inhibitor [1]: inhibited GFP knockdown

Molecule: CCCCCCCCCC(=O)NC(CN1CCOCC1)C(O)c1ccccc1 (stereo not drawn) [PDMP]
GFP knockdown in presence of inhibitor [1]: significantly decreased
cell binding of tandem peptide in presence of inhibitor [1]: significantly decreased

Molecule: N=C(N)NC(=O)c1nc(Cl)c(N)nc1N [amiloride]
GFP knockdown in presence of inhibitor [1]: significantly decreased
cell binding of tandem peptide in presence of inhibitor [1]: significantly decreased

Molecule: OC[C@H]1O[C@@H]2O[C@H]3[C@H](O)[C@@H](O)[C@@H](O[C@H]4[C@H](O)[C@@H](O)[C@@H](O[C@H]5[C@H](O)[C@@H](O)[C@@H](O[C@H]6[C@H](O)[C@@H](O)[C@@H](O[C@H]7[C@H](O)[C@@H](O)[C@@H](O[C@H]8[C@H](O)[C@@H](O)[C@@H](O[C@H]1[C@H](O)[C@H]2O)O[C@@H]8CO)O[C@@H]7CO)O[C@@H]6CO)O[C@@H]5CO)O[C@@H]4CO)O[C@@H]3CO [β-cyclodextrin]
GFP knockdown in presence of inhibitor [1]: significantly decreased
cell binding of tandem peptide in presence of inhibitor [1]: significantly decreased

effect of control peptide on GFP silencing [2]: no effect
Molecule: ARALPSQRSR [control peptide]

Molecule: CRGDKGPDC [iRGD]
tumor penetration [3]: penetrate tumor parenchyma in a to time-dependent manner
